Laboratory results reported in US20050215498A1, “Method for the protection of endothelial and epithclial cells during chemotherapy” (priority 2002, published 2005).
Read-outs that look alike come from different tables or passages of the source.

Key:
[1] = system: human microvascular endothelial cells (HMEC); type: cell-based
Experimental: All cell culture reagents have been purchased by Gibco BRL (Karlsruhe, Germany) unless stated otherwise. 2-Fluoroadenine 9-beta-D-arabinofuranoside (F-Ara) was obtained from Sigma, Deisenhofen, Germany, Defibrotide vials were obtained from Prociclide™, Crinos, Como, Italy.
(§1) An established method for detecting apoptosis in human endothelial cells was performed as previously described^20 using flow cytometry (FACScan™ and CellQuest™ software, Becton Dickinson, Heidelberg, Germany). Endothelial and epithelial cells were either left untreated or incubated with F-Ara in descending concentrations (range: 10 μg/mL to 0.1 μg/mL) in the presence or absence of Defibrotide for 48 hours. Afterwards, cells were washed in PBS/10% FCS and stained with the necrosis detecting dye propidium iodide (PI, 0.2 μg/mL, Sigma, Deisenhofen, Germany). Apoptotic cells were identified by a PI-negative staining and by a characteristic side scatter image distinct from that of non-apoptotic cells. At least three experiments per cell type have been performed.
(§2) An alternative method for the detection of apoptosis used microscopic analysis of DNA fluorescence labeled cells. 1×10 ^5/plate endothelial cells were seeded in 35 mm petri dishes (Nunc, Wiesbaden, Germany). These cells were treated as given above and subsequently fixed with Methanol/Acetone (1:1) for 2 minutes, washed once in PBS and stained with 4,6-Diamidino-2-phenylindole (DAPI) (0.5 μg/mL, Sigma, Deisenhofen, Germany), dissolved in 20% Glycerin/PBS. Samples were mounted and subjected to microscopic analysis.
In order to assess the influence of F-Ara on the viability of cultured human endothelial cells, HMEC were incubated with descending pharmacologically relevant concentrations (10 μg/mL to 0.1 μg/mL) of 2-Fluoroadenine 9-beta-D-arabinofuranoside as the metabolized form of fludarabine. […] After 48 hours of incubation HMEC were subjected to apoptosis assays using the detection of cellular granularity of propidium iodide negative cells (side scatter (SSC) image in flow cytometry) and microscopic analyses of DAPI-stained cells, respectively.
In order to exclude unspecific artifical extracellular interaction of F-Ara and Defibrotide in vitro HMEC were pretreated with Defibrotide for 1 hour and subsequently, after 3 washing steps, incubated with F-Ara for another 48 hours and vice versa.

MHC class II on HMEC = conditions: F-Ara various concentrations, 24 hours, data not shown
Experimental: (§3) Cell surface expression of ICAM-1 (Becton Dickinson/Pharmingen, Heidelberg, Germany) and MHC class I (w6/32, hybridoma supernatant, ATCC, Manassas, Va., USA) molecules on HMEC was assessed by the indirect immunofluorescence technique and subsequent flow cytometry using the FACScan™ flow cytometer and the Cell-Quest™ analysis program (Becton Dickinson, Heidelberg, Germany). Endothelial cells were treated as given and after incubation harvested with trypsin/EDTA (Gibco), washed once in cold PBS/10% FCS and incubated 1 hour on ice with 5 μg/mL of anti-adhesion molecule MoAbs. Cells were washed again and incubated with a goat anti-mouse IgG-FITC conjugated antibody F(ab)2 fragment (Dako, Hamburg, Germany) for 45 minutes on ice. Cells were then washed in PBS/10% FCS and subjected to analysis. Viability of the cells was determined by concurrent propidium iodide (0.2 μg/mL, Sigma, Deisenhofen, Germany) staining. Omitting of the first antibody served as a negative control to detect unspecific fluorescence.
(§4) Since a proinflammatory activation of target cells is often associated with increased expression of major histocompatibility antigens (MHC) class I and II, we did further flow cytometric analyses for these antigens after incubation with F-Ara in various concentrations for 24 hours.

[2] = system: HMEC as target cells for allogeneic CTL; experiment: 51Cr release assay, lysis of HMEC by allogeneic PBMC / CD8+ CTL; type: cell-based, human
From the text: Peripheral blood mononuclear cells (PBMC) were derived from heparinized (Novo Nordisk, Mainz, Germany) blood of healthy human volunteers or buffy coats from the Bavarian Red Cross according to a standard protocol using Ficoll hypaque (Pharmacia, Freiburg, Germany) density gradient centrifugation. Cells were then stimulated in a ratio of 1:1 and 2:1 with irradiated (20 Gy) HMEC for 7 days in the presence of Interleukin 2 (50 U/mL) and 10% human AB serum (Sigma, Deisenhofen, Germany). Alternatively, PBMC were selected for CD8+ T cells and natural killer (NK) cells using cell isolation kits according to the manufactuer's instructions (MACS™, Miltenyi Bio-tech, Bergisch-Gladbach, Germany) based on the deletion of non CD8+ and non NK cells, respectively. Stimulation of the selected cells was identical to that of whole PBMC cultures, except for NK cells which were stimulated for only 3 days.
T cell- or NK-cell mediated cytotoxicity was assessed according to a well established protocol,^23 using a 4h ^51Cr radioisotope assay. HMEC that had either been left untreated or incubated with F-Ara (10μg/mL) overnight were used as target cells, to be labeled 0.4 mCi Na2^51CrO4 for 2 hours. After 3 washing steps, target cells were adjusted to 10^4 cells/mL and coincubated with PBMC, CD8+ or NK effector cells at descending effector to target ratios for another 4 hours. Supernatants were transfered to dry scintillation plates and counted in a γ-counter (all from Canberra Packard, Darmstadt, Germany). Autologous (effector) B-Lymphoblastoid cell lines (B-LCL) and K562 as NK sensitive cells were taken as additional control targets. The percentage of specific lysis was calculated as: [(experimental release−spontaneous release)/(maximal release−spontaneous release)]×100. Spontaneous release in all experiments was always below 20%. […]

[3] = system: HMEC as target cells for allogeneic NK cells; experiment: 51Cr release assay, lysis of HMEC by allogeneic NK cells; type: cell-based, human; conditions: F-Ara 10 μg/mL, 24 hours
Experimental: T cell- or NK-cell mediated cytotoxicity was assessed according to a well established protocol,^23 using a 4h ^51Cr radioisotope assay. HMEC that had either been left untreated or incubated with F-Ara (10μg/mL) overnight were used as target cells, to be labeled 0.4 mCi Na2^51CrO4 for 2 hours. After 3 washing steps, target cells were adjusted to 10^4 cells/mL and coincubated with PBMC, CD8+ or NK effector cells at descending effector to target ratios for another 4 hours. Supernatants were transfered to dry scintillation plates and counted in a γ-counter (all from Canberra Packard, Darmstadt, Germany). […] The percentage of specific lysis was calculated as: [(experimental release−spontaneous release)/(maximal release−spontaneous release)]×100.

[4] = system: ICAM-1 expression on HMEC; experiment: Flow cytometric analysis of ICAM-1 expression on HMEC; type: cell-based, human
Experimental: as §3
Based on previous observations that pretransplant conditioning not only damages, but also leads to proinflammatory activation of endothelial cells in terms of adhesion molecule induction,^15 we next investigated the expression of ICAM-1 under the influence of F-Ara. […] We next asked whether Defibrotide would also be functional as an antagonist of F-Ara in this experimental setting. HMEC were treated with F-Ara as given and incubated in the presence or absence of descending concentrations of Defibrotide.

[5] = system: MHC class I molecules on HMEC; experiment: Flow cytometric analysis of MHC class I on HMEC; type: cell-based, human; conditions: for induction of mean fluorescence intensity of MHC class I: 24 hours
Experimental: as §3, §4

[6] = system: PBMC from normal human blood donors; experiment: Apoptosis assay (SSC-image) with PBMC; type: cell-based
Experimental: (§5) F-Ara: 10 μg/mL. D: 100 μg/mL. A: Propidium iodide staining of primary acute myeloid leukemia (AML) cells derived from a patient in blast crisis (70% blasts of total PBMC count). Results are given in mean % vitality of three independent experiments. *: p=0.008 of Control- versus F-Ara-treated AML cells. B: Flow cytometric analysis of the SSC-image of PI-negative PBMC. Shown is one representative out of five independent experiments with different blood donors.
as §1, with “performed. […]” for “performed.”

endothelial cells = experiment: Radiation induced endothelial cell death; type: cell-based; conditions: data not shown
From the text: Since in many pre-transplant protocols fludarabine is used in combination with ionizing radiation it was important to test whether these two compounds would cooperate in affecting endothelial cells.

[7] = system: BEAS-2B bronchial epithelial cell line and primary bronchial epithelial cells; experiment: Flow cytometric apoptosis analysis in bronchial epithelial cells; type: cell-based; conditions: F-Ara 10 μg/mL, 48 hours
Experimental: as §1
(§6) Skin, the gastrointestinal tract (GIT) and most likely the lung are among the primary targets of GvHD. Therefore, it was reasonable to test the influence of F-Ara on cell lines derived from these organs. Cells from keratinocyte (HaCaT), GIT (SW 480), alveolar (A549) and bronchial epithelial (BEAS-2B) cell lines as well as primary bronchial epithelial cells were incubated with F-Ara (10 μg/mL) as given for FIGS. 1 and 2 and assayed in flow cytometric apoptosis analyses 48 hours post treatment. […] Again, the protective potential of Defibrotide (100 μg/mL) was assessed.

[8] = system: primary acute myeloid leukemia (AML) cells; experiment: Propidium iodide staining (vitality) of primary AML cells; type: cell-based, human; conditions: 48 hours
Experimental: as §5
Next to its desirable protective capacity for endothelial and epithelial cells against F-Ara induced apoptosis it was important to investigate whether Defibrotide would also interfere with the anti-leukaemic properties of F-Ara. To address this question, primary peripheral blood derived acute myeloid leukaemic (AML) cells with a blast amount of 70% were thawed, kept in culture for 24 hours and subsequently treated with F-Ara in the presence or absence of Defibrotide for another 48 hours. […] However, F-Ara induced cell death in up to 80% of the cells. […] This could be observed after as early as 24 hours of incubation. […] We next asked whether Defibrotide might modulate the effect of F-Ara against normal haematopoetic cells and performed apoptosis assays (SSC-image) with PBMC from normal human blood donors. […]

[9] = system: SW 480 gut epithelial cell line; experiment: Flow cytometric apoptosis analysis in SW 480; type: cell-based; conditions: F-Ara 10 μg/mL, 48 hours
Experimental: as §1, §6

[10] = manufacturers's instructions, cited from earlier work
[11] = system: HaCaT human keratinocyte cell line; experiment: Flow cytometric apoptosis analysis in HaCaT; type: cell-based; conditions: Defibrotide alone, data not shown
Experimental: as §1
as §2, with “Samples were mounted and subjected to microscopic analysis.” left out
(§7) Skin, the gastrointestinal tract (GIT) and most likely the lung are among the primary targets of GvHD. […] Again, the protective potential of Defibrotide (100 μg/mL) was assessed.

[12] = system: A549 alveolar epithelial cells; experiment: Flow cytometric apoptosis analysis in A549; type: cell-based, human; conditions: Defibrotide alone, data not shown
Experimental: as §1
as §2, with “Samples were mounted and subjected to microscopic analysis.” left out
as §7

Compound: Nc1nc(F)nc2c1ncn2[C@@H]1O[C@H](CO)[C@@H](O)[C@@H]1O [F-Ara, 2-fluoro-9-β-D-arabinofuranosyladenine]
- apoptosis in HMEC ([1]; F-Ara 1 μg/mL, 48 hours): no longer effective
- apoptosis in HMEC ([1]; F-Ara 10 and 5 μg/mL, 48 hours): causes apoptosis
- apoptosis in HMEC ([1]; after 24h, data not shown): already detectable
- MHC class II expression (MHC class II on HMEC): remained unchanged
- lysis of F-Ara-treated HMEC by CD8+ CTL versus control HMEC ([2]; CD8+ selected effectors): significantly higher
- antigenicity of HMEC towards allogeneic PBMC ([2]; F-Ara (1 μg/mL) treated targets, all E/T ratios tested): increased the antigenicity
- allogenicity of HMEC towards NK cells [3]: significantly downregulated
- concentrations effective in inducing ICAM-1 ([4]; 24 hours): ≥ 1 µg/mL
- ICAM-1 expression on HMEC ([4]; F-Ara, 24 hours of incubation): significantly enhances expression
- induction of mean fluorescence intensity of MHC class I ([5]; F-Ara 5 μg/mL): 1.3 fold
- induction of mean fluorescence intensity of MHC class I ([5]; F-Ara 10 μg/mL): 1.5 fold
- % apoptotic cells ([6]; F-Ara 10 μg/mL, untreated control 5.1%): 40.1%
- enhancement of radiation induced cell death (endothelial cells; combination with ionizing radiation): could not find any enhancement
- apoptosis induction [7]: resistant
- cell death of AML cells ([8]; F-Ara 10 μg/mL, almost 50% died spontaneously): up to 80%
- apoptosis induction [9]: resistant

Compound: Nc1nc(F)nc2c1ncn2[C@@H]1O[C@H](COP(=O)(O)OP(=O)(O)OP(=O)(O)O)[C@@H](O)[C@@H]1O [fludarabine triphosphate]
- median intracellular level in target cells ([10]; concentration representing 20 μM): 5.8 µg/mL
- median intracellular level in target cells [10]: 20 µM

Compound: Defibrotide
- protection of F-Ara induced cell death ([1]; Defibrotide 100 to 0.1 μg/mL with F-Ara 10 μg/mL, 48 hours): dose-dependent protection
- endothelial cell viability ([1]; Defibrotide alone, 48 hours): did not influence endothelial cell viability
- protection from F-Ara induced apoptosis ([1]; pretreatment with Defibrotide 1 hour, washing, then F-Ara 48 hours): sufficient to protect cells
- endothelial programmed cell death ([1]; pretreatment with F-Ara 1 hour, subsequent incubation with Defibrotide): did not lead to endothelial programmed cell death
- specific lysis of HMEC by CD8+ CTL ([2]; pretreatment of target HMEC with F-Ara and Defibrotide (F-Ara+D)): downregulated specific lysis even below control levels
- F-Ara induced ICAM-1 expression ([4]; Defibrotide 100 μg/mL and 10 μg/mL with F-Ara 10 μg/mL): antagonized
- ICAM-1 expression ([4]; Defibrotide alone, every concentration tested, data not shown): remained unchanged
- number of apoptotic cells [11]: did not influence the number of apoptotic cells
- MHC class I molecules, F-Ara versus F-Ara+D treated HMEC ([5]; data not shown): significant downregulation
- % apoptotic cells ([6]; F-Ara 10 μg/mL with Defibrotide 100 μg/mL): 43.1%
- protection against radiation induced endothelial cell damage (endothelial cells): not protective
- number of apoptotic cells [12]: did not influence the number of apoptotic cells
- protection of AML cells from F-Ara mediated toxicity ([8]; Defibrotide 100 μg/mL with F-Ara 10 μg/mL): not able to protect
